The test system of one data set is COVID-19. More on the design: method as in Lenze et al., 2020. Particulars: hospitalized patients with COVID-19, double-blind RCT; ref Lenze et al., 2020; cited from earlier work.
The subject of the next data set is KCNQ1. The data set can be described thus: RT-qPCR of KCNQ1 in hiPSC-CMs. Format: cell-based, human. Background: Real-time PCR tracks product formation cycle by cycle.
The next data set has as its system Ito. Also on record: method as in Chen et al., 2020; Guo et al., 2021. Particulars: as a sigma-1 receptor agonist; ref Chen et al., 2020; Guo et al., 2021; cited from earlier work.
Data set [1] relates to sodium or calcium channels (SLC8A1, CACNA1C, SCN5A). In words: RT-qPCR of cardiac ion channel genes in hiPSC-CMs: sodium or calcium channels. Format: cell-based, human. As to conditions: GAPDH housekeeping.
Another data set relates to ICaL. More on the design: method as in Chen et al., 2020; Guo et al., 2021. As to conditions: as a sigma-1 receptor agonist; ref Chen et al., 2020; Guo et al., 2021; cited from earlier work.
The next data set concerns hiPSC-CMs. In words: Action potential recording in hiPSC-CMs, whole-cell patch-clamp (current-clamp). The data set is classed as cell-based, human. Particulars: for decrease of APD vs CTL / APD (APD90): 24-h incubation; for APD (APD90): CTL 364.4 ms, p < 0.0001, n = 14; for early after-depolarizations (EADs) during repolarization: transient effect, recorded within 1 hour. On the technique in general: The patch-clamp technique gives a direct electrical read-out from membranes.

A further data set deals with Hsp90. The data set can be described thus: Western blot of chaperone Hsp90 after 24 h incubation. Particulars: LPV 1-20 μM. The data set is classed as cell-based, human. (In general: Immunoblotting shows a protein as a band on a membrane.)
The next data set deals with SARS-CoV-2. More on the design: method as in Lou et al., 2021. Particulars: read-out: 50% effective inhibition concentration (EC50) against SARS-CoV-2; ref Lou et al., 2021; cited from earlier work.
Another data set concerns Hsp70. In words: Western blot of chaperone Hsp70 after 24 h incubation. Particulars: LPV 1-20 μM, especially at 10 μM. The data set is classed as cell-based, human.
A further data set deals with hERG protein. Also on record: method as in Borsini et al., 2012. As to conditions: ref Borsini et al., 2012; cited from earlier work.
For the next data set, the system named is hERG potassium channel. More on the design: method as in Szendrey et al., 2021. Particulars: ref Szendrey et al., 2021; cited from earlier work.
For another data set, the system named is hERG. More on the design: method as in Szendrey et al., 2021. Particulars: when acting alone; ref Szendrey et al., 2021; cited from earlier work.
Where [2] appears, read: FLV-treated hiPSC-CMs, Figure 6H.
[3] abbreviates: LPV-treated hiPSC-CMs, Figure 6H.

The text below walks through data of PMC9301601 (Frontiers in Pharmacology, 2022).

Consider `COCCCC/C(=N\OCCN)c1ccc(C(F)(F)F)cc1` [FLV, fluvoxamine], for which the clinical deterioration rate entry in the data set with COVID-19 is listed as “lower clinical deterioration rate”. Also, the “level of KCNQ1 nucleic acid” value in the data set on KCNQ1 (chronic FLV administration) is “increased”. Further, the “effect on Ito” value with Ito is “enhances”. Besides, the “mRNA expression of sodium or calcium channels” value in data set [1] (3 μM FLV) is “did not significantly alter”. Moreover, the “effect on ICaL” value with ICaL is “decreases”. In the data set with hiPSC-CMs (3 μM FLV), the “decrease of APD vs CTL” value worked out at 183.6 ms, the “APD (APD90)” value is given as 180.8 ms and the “early after-depolarizations (EADs) during repolarization” value was “induce the occurrence of EADs”. In the data set on hiPSC-CMs (setting [2]), the APD10 was 52.3 ± 8.8 ms, the “Amp (amplitude)” value is 99.2±9.7 mV and the “MDP (maximum diastolic potential)” value is -51.8±8.3 mV.
As for `Cc1cccc(C)c1OCC(=O)N[C@@H](Cc1ccccc1)[C@@H](O)C[C@H](Cc1ccccc1)NC(=O)[C@H](C(C)C)N1CCCNC1=O` [LPV, lopinavir], the “level of KCNQ1 nucleic acid” value in the data set on KCNQ1 (chronic LPV administration) was “increased”. Besides, in the data set with Hsp90, the “expression levels of Hsp90” value is “significant reduction”. For the same compound, the EC50 in the data set with SARS-CoV-2 is 1.74 µM. Moreover, the “mRNA expression of sodium or calcium channels” value in data set [1] (10 μM LPV) is “did not significantly alter”. Further, the “expression of Hsp70” value in the data set on Hsp70 is on record as “significantly increased”. For the same compound, in the data set on hiPSC-CMs (10 μM LPV), the “decrease of APD vs CTL” value was 191.8 ms, the “APD (APD90)” value came out at 172.6 ms and the “early after-depolarizations (EADs) during repolarization” value is on record as “induce the occurrence of EADs”. In the data set on hiPSC-CMs (setting [3]), the APD10 turned out to be 48.9 ± 10.3 ms, the APD30 worked out at 103.6 ± 11.2 ms, the “Amp (amplitude)” value came to 103.8±6.1 mV and the “MDP (maximum diastolic potential)” value is given as -59.1±3.6 mV.
In the case of `CCN(CC)CCCC(C)Nc1ccnc2cc(Cl)ccc12` (stereo not shown) [chloroquine], the “trafficking of the hERG protein” value in the data set with hERG protein was “prompted the trafficking”. For the same compound, the “effect on the hERG current (IhERG)” value with hERG potassium channel is “acutely and severely inhibited”.
On to `CCN(CCO)CCCC(C)Nc1ccnc2cc(Cl)ccc12` (stereo not shown) [hydroxychloroquine], for which, in the data set on hERG potassium channel, the “effect on the hERG current (IhERG)” value is “acutely and severely inhibited”.
Take `CCC(CC)COC(=O)[C@H](C)N[P@](=O)(OC[C@H]1O[C@@](C#N)(c2ccc3c(N)ncnn23)[C@H](O)[C@@H]1O)Oc1ccccc1` [remdesivir]: the hERG maturation entry in the data set on hERG is recorded as “promoted hERG maturation”. In addition, the “effect on the hERG current (IhERG)” value in the data set on hERG potassium channel is “increased”.
